Converted amounts (≈) assume the structure as drawn.
How the values were obtained:
[1] = Assessment of solubility (HT solubility, pION, UV); type: physicochemical; settings: incubated 16-19 hours, 1.0% DMSO, 100 uM; for solubility kinetic: pH 4.5 buffer (pION system solution), pH 4.5, aqueous buffer, kinetic from dmso stock, pH 4.5 buffer, read-out: Sol pH 4.5; for Sol pH 7.4: pH 7.4 buffer
Protocol: Solubility is measured by the following method.
DMSO stock samples at 10 mM conc are prepared. […] The samples are pierced and 100 ul of thawed samples are transferred into the PCR plate for analysis. Each sample is run in duplicate at each pH (pH 4.5 and 7.4). Up to 95 samples can be run in replicate at 2 pH's+1 DMSO (blank).
2. Preparation of pH 4.5 and 7.4 buffers:
pH 4.5 buffer: To 12.5 of system solution (pION) qs to 500 mL of distilled water (pH 2.85-2.90); adjust the pH to pH 4.5 with 0.5 N NaOH.
pH 7.4 buffer: To 12.5 of system solution (pION) qs to 500 mL of distilled water (pH 2.85-2.90); adjust the pH to pH 7.4 with 0.5N NaOH.
Preparation of UV blank plate:
75 ul of buffer (pH 7.4 or pH 4.5) is added to UV plate followed by addition of […] of N-propanol. The solution is mixed and the blank spectrum is read using spectrophotometer.
Preparation of Reference UV plate:
10 ul of each stock sample (including DMSO control) is added to 190 ul of N-propanol to prepare the reference stock plate. Reference stock samples are mixed and 5 ul of each stock sample is added to UV blank plate after it is read spectrophotometrically. The reference stock sample is mixed with blank solution in UV plate and the reference spectrum is read using UV spectrophotometer.
Preparation of sample for incubation:
Solubility at pH 7.4: 6 ul of each stock sample (including DMSO control) is added to the storage plate containing 600 ul of pH 7.4 buffer, mixed and incubated for 16-19 hours. The plate is sealed well during the incubation process. The DMSO content in the sample is 1.0%. The concn in deep well plates is 100 uM
6 ul of each stock sample (including DMSO control) is added to the deep well plate containing 600 ul of pH 4.5 buffer, mixed and incubated for 16-19 hours. The plate is sealed well during the incubation process. The DMSO content in the sample is 1.0%. The concn in deep well plates is 100 uM
Preparation of sample UV plate:
At the end of the incubation period, 100 uL of sample from the storage plate is vacuum filtered using a filter plate. This step wets the filters and the filtrate is discarded. Another 200 ul of the sample from the deep well plate is vacuum filtered using the same filter block but a clean filter plate. 75 ul of the filtrate from the filter plate is transferred to a UV sample plate. 75 ul of N-propanol is added to this UV plate. The solution is mixed and the spectrum is read using the UV spectrophotometer.
The spectra collected for blank, reference and sample from 250-498 nm is analyzed using pION software. If the sample precipitates out, the solubility is reported as XX μg/ml. If there is no precipitation and the sample is soluble, solubility is reported as […] (YY being the initial concentration of the compound in the sample).

[2] = biological target: T1, Recombinant human soluble guanylate cyclase (sGC) (Homo sapiens, UniProt Q02153); assay: Molecular assay: activation of heme-free sGC, cGMP detection (CisBio kit); type: biochemical; settings: 300 pM heme-free sGC, 37° C., 60 minutes, cGMP formation
T1 construct: histidine tag (C); made in house; host or cells: Sf9 insect cells (baculovirus coinfection)
T1 sequence (Q02108 whole entry partner): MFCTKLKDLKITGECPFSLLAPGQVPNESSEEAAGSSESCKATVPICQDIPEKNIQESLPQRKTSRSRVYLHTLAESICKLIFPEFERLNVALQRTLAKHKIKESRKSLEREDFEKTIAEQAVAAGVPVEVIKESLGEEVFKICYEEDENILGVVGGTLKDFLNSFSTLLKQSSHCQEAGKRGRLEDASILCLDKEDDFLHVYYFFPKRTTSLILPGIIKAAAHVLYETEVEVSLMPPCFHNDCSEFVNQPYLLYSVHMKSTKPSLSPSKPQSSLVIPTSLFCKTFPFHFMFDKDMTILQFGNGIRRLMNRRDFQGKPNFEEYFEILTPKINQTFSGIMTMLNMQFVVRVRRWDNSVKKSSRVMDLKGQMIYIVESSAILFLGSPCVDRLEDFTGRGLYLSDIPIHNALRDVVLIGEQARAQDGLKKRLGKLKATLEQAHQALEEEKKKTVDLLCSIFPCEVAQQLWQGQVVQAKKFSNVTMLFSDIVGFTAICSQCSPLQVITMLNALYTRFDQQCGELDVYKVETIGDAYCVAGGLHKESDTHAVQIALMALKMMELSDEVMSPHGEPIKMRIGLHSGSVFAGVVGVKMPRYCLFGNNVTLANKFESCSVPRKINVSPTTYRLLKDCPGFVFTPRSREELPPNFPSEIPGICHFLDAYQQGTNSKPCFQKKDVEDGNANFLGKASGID
T1 sequence (Q02153 whole entry): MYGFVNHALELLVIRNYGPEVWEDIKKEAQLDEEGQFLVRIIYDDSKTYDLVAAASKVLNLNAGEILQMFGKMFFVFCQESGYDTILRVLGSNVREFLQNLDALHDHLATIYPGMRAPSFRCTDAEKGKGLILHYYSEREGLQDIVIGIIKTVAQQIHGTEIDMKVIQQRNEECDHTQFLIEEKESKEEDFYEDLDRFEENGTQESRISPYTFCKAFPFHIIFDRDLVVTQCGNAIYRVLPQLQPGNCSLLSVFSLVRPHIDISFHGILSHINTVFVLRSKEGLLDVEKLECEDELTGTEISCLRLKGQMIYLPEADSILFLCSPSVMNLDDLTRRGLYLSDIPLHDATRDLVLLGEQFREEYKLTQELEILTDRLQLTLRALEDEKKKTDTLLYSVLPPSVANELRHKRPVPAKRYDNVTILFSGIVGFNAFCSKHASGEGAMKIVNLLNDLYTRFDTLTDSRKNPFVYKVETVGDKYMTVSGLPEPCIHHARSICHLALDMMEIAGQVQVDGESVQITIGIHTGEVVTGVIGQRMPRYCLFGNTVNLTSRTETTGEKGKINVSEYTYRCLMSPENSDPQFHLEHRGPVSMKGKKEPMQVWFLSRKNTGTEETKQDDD
Protocol: The compounds of the invention may be evaluated in the following molecular assay:
Recombinant human soluble guanylate cyclase (sGC) is purified from Sf9 insect cells coinfected with baculoviruses expressing the alpha 1 or beta 1 subunit of sGC, both with a C-terminal histidine tag. Heme-free sGC is prepared by treating cell lysate with a final concentration of 0.5% Tween 20 prior to purification on a nickel affinity column.
sGC catalyzes the conversion of guanosine-5′-triphosphate (GTP) to cyclic guanosine monophosphate (cGMP). The activity of sGC is measured in vitro using the commercially available CisBio cGMP detection kit (catalog #62GM2PEB) in a 384 well format. In brief, 300 pM heme-free sGC is incubated in reaction buffer (50 mM MOPS pH 6.8, 0.2 N KOH, 50 mM NaCl, 2 mM MgCl2, 0.1% BSA, 1.25 mM IBMX, 0.25 mM TCEP, 50 nM GTP) in the presence or absence of dilutions of test compounds diluted in DMSO (final concentration of 1%) in a volume of 10 microL at 37° C. for 60 minutes. Undiluted reaction products or an 80-fold dilution of reaction products (10 microL of either) prepared in reaction buffer containing 0.2 mM TCEP and 10 mM EDTA is mixed with 5 microL of d2-cGMP plus 5 microL of Eu^3+cryptate-labeled anti-cGMP, each diluted in buffer containing 0.1 M KPO4 pH 7.5, 0.4 M KF, 20 mM EDTA, 0.2% BSA. After a one hour incubation at room temperature in the dark, the mixtures are quantified on an EnVision plate reader (PerkinElmer) according to manufacturer instructions (laser excitation 337 nm, emission 620 and 665 nm). The ratio at each compound concentration is converted to nM cGMP using the linear portion of a calibration curve. Log compound concentration is plotted against combined undiluted and diluted nM cGMP values to determine the EC50 for each curve.
Representative compounds of the present invention were tested for activity in the above assay. Preferred compounds have an IC50<5,000 nM and more preferred compounds have an IC50<100 nM in this assay.

SMILES | solubility kinetic [1] [µg/mL] | Sol pH 7.4 [1] [μg/mL] | EC50 [2] [nM]
Cc1ccc(OCc2ccc3c(c2)CCN(C2CCC(C(F)(F)F)CC2)C3)c(-c2cccc(-n3ncc(C(=O)O)c3C(F)(F)F)n2)c1 (stereo not drawn) [Compound 33] | 6.3 (≈ 9.57 µM) | 4.6 | 6
Cc1ccc(OCc2ccc3c(c2)CCN(C2CCOCC2)C3)c(-c2cccc(-n3ncc(C(=O)O)c3C(F)(F)F)n2)c1 [Compound 34] | 41.5 (≈ 70 µM) | 41.8 | 8
Cc1ccc(OCc2ccc3c(c2)CCN(C2CCOC2)C3)c(-c2cccc(-n3ncc(C(=O)O)c3C(F)(F)F)n2)c1 (stereo not drawn) [Compound 35, 1-(6-{5-methyl-2-[2-(tetrahydrofuran-3-yl)-1,2,3,4-tetrahydroisoquinolin-6-ylmethoxy]phenyl}pyridin-2-yl)-5-trifluoromethyl-1H-pyrazole-4-carboxylic acid] | 42.3 (≈ 73.1 µM) | 43.0 | 7
Cc1ccc(OCc2ccc3c(c2)CCN(C)C3)c(-c2cccc(-c3sc(C(=O)O)cc3C)n2)c1 [Compound 37, 4-methyl-5-{6-[5-methyl-2-(2-methyl-1,2,3,4-tetrahydro-isoquinolin-6-ylmethoxy)phenyl]pyridin-2-yl}-thiophene-2-carboxylic acid] | 14.1 (≈ 29.1 µM) | 27.4 | 198
Cc1ccc(OCc2ccc3c(c2C)CCN(C)C3)c(-c2cccc(-n3ncc(C(=O)O)c3C(F)(F)F)n2)c1 [Compound 38] | 15.5 (≈ 28.9 µM) | 18.4 | 46
Cc1ccc(OCc2ccc3c(c2)CCN(C)C3)c(-c2cccc(-c3ncc(C(=O)O)n3C)n2)c1 [Compound 41] | > 58 | 11.8 | 4540
Cc1ccc(OCc2ccc3c(c2)CCN(C)C3)c(-c2cccc(-n3ncc(C(=O)O)c3C)n2)c1 [Compound 43, 5-methyl-1-{6-[5-methyl-2-(2-methyl-1,2,3,4-tetrahydro-isoquinolin-6-ylmethoxy)phenyl]pyridin-2-yl}-1H-pyrazole-4-carboxylic acid] | 15.4 (≈ 32.9 µM) | 19.6 | 1700
Cc1ccc(OCc2ccc3c(c2)CCN(C)C3)c(-c2cccc(-c3csc(C(=O)O)c3C)n2)c1 [Compound 46, 3-methyl-4-{6-[5-methyl-2-(2-methyl1,2,3,4-tetrahydroisoquinolin-6-ylmethoxy)phenyl]pyridin-2-yl}thiophene-2-carboxylic acid] | 0.1 (≈ 0.206 µM) | 5.7 | 2000
Cc1ccc(OCc2ccc3c(c2C)CCN(C)C3)c(-c2cccc(-c3ncc(C(=O)O)n3C)n2)c1 [Compound 48, 2-{6-[2-(2,5-dimethyl-1,2,3,4-tetrahydroisoquinolin-6-ylmethoxy)-5-methylphenyl]pyridin-2-yl}-3-methyl-3H-imidazole-4-carboxylic acid] | 5.1 (≈ 10.6 µM) | 1.9 | 640
Cc1ccc(OCc2ccc3c(c2)CCN(Cc2nc(C)cs2)C3)c(-c2cccc(-c3csc(C(=O)O)c3C)n2)c1 [Compound 50] | 13.7 (≈ 23.5 µM) | 13.4 | 380
Cc1ccc(OCc2ccc3c(c2)CCN(CC2CCOC2)C3)c(-c2cccc(-c3csc(C(=O)O)c3C)n2)c1 (stereo not drawn) [Compound 51] | 44.7 (≈ 80.6 µM) | 35.9 | 340
Cc1ccc(OCc2ccc3c(c2C)CCN(C2CCOC2)C3)c(-c2cccc(-c3csc(C(=O)O)c3C)n2)c1 (stereo not drawn) [Compound 53] | 40.1 (≈ 72.3 µM) | 51.4 | 47
Cc1ccc(OCc2ccc3c(c2C)CCN(C2CCOC2)C3)c(-c2cccc(-c3ncc(C(=O)O)n3C)n2)c1 (stereo not drawn) [Compound 54] | > 76 | 32.6 | 165
Cc1cccc(-c2cccc(-n3cnc(C(=O)O)c3C)n2)c1OCc1ccc2c(c1C)CCN(C1CCOC1)C2 (stereo not drawn) [Compound 55] | > 63 | >63 | 44

Continued, values first:

solubility kinetic [1] [µg/mL] | Sol pH 7.4 [1] [μg/mL] | EC50 [2] [nM] | SMILES
> 62 | >62 | 19 | Cc1ccc(OCc2ccc3c(c2)CCN(CCC2CCOCC2)C3)c(-c2cccc(-n3ncc(C(=O)O)c3C(F)(F)F)n2)c1 [Compound 25]
> 60 | >60 | 3 | Cc1ccc(OCc2ccc3c(c2)CCN(CC2CCCOC2)C3)c(-c2cccc(-n3ncc(C(=O)O)c3C(F)(F)F)n2)c1 (stereo not drawn) [Compound 26]
18.2 (≈ 30.4 µM) | 25.6 | 6 | Cc1ccc(OCc2ccc3c(c2)CCN(Cc2ccccc2)C3)c(-c2cccc(-n3ncc(C(=O)O)c3C(F)(F)F)n2)c1 [Compound 27]
> 61 | >61 | 9 | Cc1ccc(OCc2ccc3c(c2)CCN(C(C)c2cnccn2)C3)c(-c2cccc(-n3ncc(C(=O)O)c3C(F)(F)F)n2)c1 (stereo not drawn) [Compound 28]
12.9 (≈ 20.8 µM) | >61 | 0.5 | Cc1ccc(OCc2ccc3c(c2)CCN(Cc2nc(C)cs2)C3)c(-c2cccc(-n3ncc(C(=O)O)c3C(F)(F)F)n2)c1 [Compound 29]
> 60 | >60 | 71 | Cc1ccc(OCc2ccc3c(c2)CCN(Cc2cncn2C)C3)c(-c2cccc(-n3ncc(C(=O)O)c3C(F)(F)F)n2)c1 [Compound 30]
22 (≈ 36.4 µM) | >60 | 2 | Cc1ccc(OCc2ccc3c(c2)CCN(Cc2cc(C)on2)C3)c(-c2cccc(-n3ncc(C(=O)O)c3C(F)(F)F)n2)c1 [Compound 31]
10.8 (≈ 17.5 µM) | 15.9 | 12 | CCn1cc(CN2CCc3cc(COc4ccc(C)cc4-c4cccc(-n5ncc(C(=O)O)c5C(F)(F)F)n4)ccc3C2)cn1 [Compound 32]
16.3 (≈ 30.4 µM) | 18.5 | 32 | Cc1ccc(OCc2ccc3c(c2)CCN(C)CC3)c(-c2cccc(-n3ncc(C(=O)O)c3C(F)(F)F)n2)c1 [Compound 40]
> 63 | 42.1 | 550 | Cc1ccc(OCc2ccc3c(c2)CN(C)CC3)c(-c2cccc(-n3ncc(C(=O)O)c3C(F)(F)F)n2)c1 [Compound 52]

Source: US8569339B2, “Soluble guanylate cyclase activators” (Boehringer Ingelheim International GmbH, priority 2011, dated 2013)
